Results reported in patent US20230331727A1, “METHOD FOR THE PRODUCTION OF LUMATEPERONE AND ITS SALTS” (EGIS GYOGYSZERGYAR ZRT., priority 2017, published 2023).

How the values were obtained:
[1] = Storage stability of the amorphous salt by x-ray powder diffraction; assay type: physicochemical; settings: storage at room temperature in a sealed vessel; XRD curves after production and after storage essentially the same (FIG. 5)
Excerpt: The reason for this is that the general experience with amorphous active substances is that they are less chemically stable, also while amorphous substances are left to stand, optionally, during storage, or in the pharmaceutical preparation itself they partially or completely transform into a crystalline form or into a mixture of several crystalline forms forming a morphologically inhomogeneous (non-uniform) active substance. Furthermore the solubility of the unstable amorphous compound usually differs from the solubility of the crystalline active substance, a morphological change during storage may lead to a change in the effect of the preparation. However, contrary to the general expectations it was surprising to experience that the formula (III) amorphous lumateperone salt according to the invention, in which salt the molar ratio of the formula (I) lumateperone and p-toluenesulfonic acid is 1:1, remains stable for 3 months (see FIG. 5) without transforming into the very stable polymorph form A or other form. […] It can be seen that the two curves are essentially the same, no peaks characteristic of crystalline forms are apparent even after storage. […] [table] [table]

[2] = DSC measurement of the amorphous tosylate; assay type: physicochemical; settings: 30° C. - 190° C., 10° C./min, open Al crucible
Method: According to DSC measurements the amorphous form formed with p-toluenesulfonic acid according to the invention only transforms into the crystalline form A at a temperature of around 120° C. This supports that the amorphous form is suitable for the production of pharmaceutical preparations. In other words the advantage of the invention is that the amorphous salt according to the invention is morphologically uniform and stable. Therefore, it is not expected to transform into another form in the pharmaceutical preparation, and the quality of the preparations, primarily its dissolution characteristics are not expected to change. The morphological uniformity is supported by the x-ray powder diffractogram of the novel salt, it confirms its uniform crystal structure and enables the identification of the form even in a pharmaceutical preparation, thereby making it possible to monitor the quality at a later time, and differentiate it from other crystalline polymorphous forms. [table]

CN1CCN2c3c(cccc31)[C@@H]1CN(CCCC(=O)c3ccc(F)cc3)CC[C@@H]12.Cc1ccc(S(=O)(=O)O)cc1
remains stable without transforming into the very stable polymorph form A or other form [1]: 3 months
temperature at which the amorphous form transforms into the crystalline form A [2]: around 120 °C
